The test system of data set [1] is T-cell. The experiment in a line: Inhibition of proliferation of C57BL/6 female mouse T-cells isolated from spleen. It is filed as functional, cell-based. The conditions noted are these: C57BL/6, T-cell.
Data set [2] deals with T-cell. The experiment in a line: Immunosuppressive activity in C57BL/6 female mouse T-cells isolated from spleen assessed as inhibition of LPS-induced IFN-gamma secretion at 20 uM treated for 48 hrs by ELISA based assay relative to control. In kind it is functional. As to conditions: C57BL/6, T-cell. (In general: In an ELISA, binding on a coated surface is turned into a signal by an enzyme label.)

Data set [3] relates to T-cell. The experiment in a line: Inhibition of proliferation of C57BL/6 female mouse T-cells isolated from spleen at 20 uM relative to control. In kind it is functional. As to conditions: C57BL/6, T-cell.
Data set [4] deals with T-cell. The experiment in a line: Immunosuppressive activity in C57BL/6 female mouse T-cells isolated from spleen assessed as inhibition of LPS-induced IFN-gamma secretion treated for 48 hrs by ELISA based assay. It is filed as functional. The conditions noted are these: C57BL/6, T-cell.
Data set [5] relates to RAW264.7. The experiment in a line: Inhibition of cytokine secretion in mouse RAW264.7 cells assessed as suppression of LPS-induced TNF-alpha at 40 uM secretion measured after 48 hrs by ELISA based assay. In kind it is functional, cell-based.
In data set [6] the test system is RAW264.7. The experiment in a line: Immunosuppressive activity in mouse RAW264.7 cells assessed as reduction in expression of ERK phosphorylation at 10 to 40 uM by Western blot analysis. In kind it is functional, cell-based. The conditions noted are these: dose 10-40 µM. Background: Immunoblotting shows a protein as a band on a membrane.
Data set [7] relates to RAW264.7. The experiment in a line: Inhibition of cytokine secretion in mouse RAW264.7 cells assessed as suppression of LPS-induced IL-6 secretion at 40 uM measured after 48 hrs by ELISA based assay. In kind it is functional, cell-based.
In data set [8] the test system is Mus musculus. The experiment in a line: Reduction in IL-6 level in LPS-induced sepsis mouse model peripheral blood at 50 mg/kg, IG measured after 12 hrs by ELISA based assay. It is filed as functional, organism-based.
For data set [9], the species on record is Mus musculus. The experiment in a line: Antisepsis against LPS-induced sepsis mouse model assessed as increase in survival rate of mouse treated IG measured upto 24 hrs. It is filed as functional, organism-based.
Data set [10] is filed under the species Mus musculus. The experiment in a line: Immunosuppressive activity in C57BL/6 female mouse T Cells isolated from spleen assessed as inhibition of anti-CD3/CD28-induced IFN-gamma secretion measured after 48 hrs by ELISA based assay relative to control. The conditions noted are these: T-cell. In kind it is functional.
Data set [11] deals with RAW264.7. The experiment in a line: Immunosuppressive activity in mouse RAW264.7 cells assessed as reduction in expression of P70S6K phosphorylation at 10 to 40 uM by Western blot analysis. As to conditions: dose 10-40 µM. In kind it is functional, cell-based.
For data set [12], the system named is Mus musculus. The experiment in a line: Reduction in TNF-alpha level in LPS-induced sepsis mouse model peripheral blood at 25 mg/kg, IG measured after 12 hrs by ELISA based assay. It is filed as functional, organism-based.
Data set [13] deals with Mus musculus. The experiment in a line: Antisepsis against LPS-induced sepsis mouse multiorgan damage model model assessed as reduction in multiorgan damage at 25 to 50 mg/kg, IG measured after 24 hrs by H and E staining assay. As to conditions: dose 25-50 mg/kg. It is filed as functional, organism-based.
In data set [14] the test system is RAW264.7. The experiment in a line: Antiproliferative activity against mouse RAW264.7 cells at 2.5 to 40 uM. It is filed as toxicity, cell-based. The conditions noted are these: raw264.7, 40 µM, dose 2.5-40 µM.
For data set [15], the system named is RAW264.7. The experiment in a line: Inhibition of cytokine secretion in mouse RAW264.7 cells assessed as suppression of LPS-induced TNF-alpha secretion measured after 48 hrs by ELISA based assay. In kind it is functional, cell-based. As to conditions: dose 2.5-40 µM.
Data set [16] relates to RAW264.7. The experiment in a line: Inhibition of cytokine secretion in mouse RAW264.7 cells assessed as suppression of LPS-induced IL-6 secretion measured after 48 hrs by ELISA based assay. It is filed as functional, cell-based. As to conditions: dose 2.5-40 µM.
Data set [17] concerns RAW264.7. The experiment in a line: Immunosuppressive activity in mouse RAW264.7 cells assessed as reduction in expression of JNK phosphorylation at 10 to 40 uM by Western blot analysis. In kind it is functional, cell-based. The conditions noted are these: dose 10-40 µM.
The subject of data set [18] is T-cell. The experiment in a line: Blocked of cell cycle progression in anti-CD3/CD28 stimulated C57BL/6 female mouse T-cells isolated from spleen assessed as increase in cells at G2/M phase measured after 48 hrs by flow cytometry assay. It is filed as functional, cell-based. The conditions noted are these: dose 5-20 µM.
Data set [19] deals with T-cell. The experiment in a line: Blocked of cell cycle progression in anti-CD3/CD28 stimulated C57BL/6 female mouse T-cells isolated from spleen assessed as increase in cells at G0/G1 phase at 5 to 20 uM measured after 48 hrs by flow cytometry assay. It is filed as functional, cell-based. As to conditions: dose 5-20 µM. (A flow cytometer gives signals particle by particle.)

Data set [20] relates to T-cell. The experiment in a line: Blocked of cell cycle progression in anti-CD3/CD28 stimulated C57BL/6 female mouse T-cells isolated from spleen assessed as decrease in cells at S phase measured after 48 hrs by flow cytometry assay. It is filed as functional, cell-based. As to conditions: dose 5-20 µM.
Data set [21] relates to T-cell. The experiment in a line: Inhibition of proliferation of C57BL/6 female mouse T-cells isolated from spleen at 1 uM relative to control. As to conditions: C57BL/6, T-cell. It is filed as functional.
Data set [22] relates to T-cell. The experiment in a line: Immunosuppressive activity in C57BL/6 female mouse T-cells isolated from spleen assessed as inhibition of LPS-induced IFN-gamma secretion at 1 uM treated for 48 hrs by ELISA based assay relative to control. In kind it is functional. The conditions noted are these: C57BL/6, T-cell.

The record followed here is ChEMBL document CHEMBL5532671, “Leucosceptrane Sesterterpenoids as a New Type of Natural Immunosuppressive Agents in Treating Sepsis” (J Med Chem, 2024).

Activity calls are given as the source filed them. No cut-off for these calls is given here.

With `CC(C)=CC1O[C@@]2(C)CC[C@]3(OC(=O)C=C3C)O[C@]13[C@H]2C(=O)[C@H]1[C@@H](CC[C@@H]1C)[C@@H]3C` (some centres undefined), the IC50 (commonly the concentration that inhibits the measured activity by half) turned out to be 25.8 µM with T-cell [1] and 12.6 µM in the data set with T-cell [4]. In addition, the inhibition (commonly the percentage by which the read-out fell short of the control) at 20 µM with T-cell [2] came out at 69.4%; in the data set with T-cell [3], 51.5%.
Consider `CC(C)=CC(=O)[C@@]1(O)[C@@H](C)[C@@H]2CC[C@H](C)[C@H]2C(=O)[C@]1(O)[C@H](C)CC[C@@H]1OC(=O)C=C1C`, for which the inhibition result in the data set on RAW264.7 [5] and with RAW264.7 [7] was “Active” throughout. The outcome with RAW264.7 [6], in the data set with Mus musculus [8], in the data set filed under Mus musculus [10], with RAW264.7 [11], in the data set with Mus musculus [12] and with Mus musculus [13] was Active. In addition, the Activity result in the data set listed under Mus musculus [9] is “Dose-Dependent Effect”; in the data set on RAW264.7 [14], “Non-Toxic”. Besides, the inhibition at 20 µM in the data set on T-cell [2] was 54.3%; with T-cell [3], 14.7%. Besides, the IC50 with T-cell [4] came out at 9.94 µM.
In the case of `CC(C)=C[C@H]1O[C@@](C)(CCc2occc2C)C2=C1[C@@H](C)[C@@H]1CC[C@H](C)[C@]1(O)C2=O`, the inhibition result with RAW264.7 [15] and with RAW264.7 [16] was “Dose-Dependent Effect” each time. For the same compound, the result with RAW264.7 [6], with RAW264.7 [17], in the data set filed under Mus musculus [10], in the data set on RAW264.7 [11] and in the data set on T-cell [19] was Active. Also, the figures for the IC50 in the data set with T-cell [1] and in the data set on T-cell [4] were 32.5 µM and 4.94 µM, respectively. The Activity entry is “Dose-Dependent Effect” with T-cell [18], “Dose-Dependent Effect” with T-cell [20] and “Non-Toxic” in the data set on RAW264.7 [14]. Further, the values for the inhibition at 20 µM in the data set on T-cell [2] and in the data set on T-cell [3] were 73.7% and 39.8%, respectively.
On to `C/C=C/C[C@@H](C)[C@@H](O)[C@H]1C(=O)N[C@@H](CC)C(=O)N(C)CC(=O)N(C)[C@@H](CC(C)C)C(=O)N[C@@H](C(C)C)C(=O)N(C)[C@@H](CC(C)C)C(=O)N[C@@H](C)C(=O)N[C@H](C)C(=O)N(C)[C@@H](CC(C)C)C(=O)N(C)[C@@H](CC(C)C)C(=O)N(C)[C@@H](C(C)C)C(=O)N1C` [CYCLOSPORINE], for which the inhibition at 1 µM in the data set with T-cell [21] turned out to be 36.7%; with T-cell [22], 99.2%.
Turning to `CC(C)=C[C@H]1O[C@@]2(C)C[C@H](c3occc3C)O[C@]13[C@H]2C(=O)[C@@]1(O)[C@@H](C)CC[C@H]1[C@@H]3C`, the figures for the inhibition at 20 µM in the data set on T-cell [2] and in the data set on T-cell [3] were 57.7% and 18.6%, respectively. Moreover, the IC50 in the data set with T-cell [4] turned out to be 22 µM.
Take `CC(C)=C[C@H]1O[C@@](C)(CC[C@@H]2OC(=O)C=C2C)[C@@H]2C(=O)[C@H]3[C@@H](CC[C@@H]3C)[C@H](C)[C@@]21O`: the inhibition at 20 µM in the data set on T-cell [2] is 57.6%; in the data set on T-cell [3], 26.7%. The IC50 in the data set on T-cell [4] worked out at 23.6 µM.
